# Key:
# [1] = test system: KRAS (DNA, G4) GGGAGGGAGGGAAGGAGGGAGGGAGGGA; experiment: fluorescence anisotropy of compound; conditions: 100 mM KCl, K+ phosphate; 10 mM potassium phosphate pH 7.0; 10 µM compound titrated with DNA
# [2] = test system: KRAS (DNA, G4) GGGAGGGAGGGAAGGAGGGAGGGAGGGA; experiment: ITC; conditions: 100 mM KCl, K+ phosphate; 10 mM potassium phosphate pH 7.0, 25 °C; 100 µM DNA injected into 10 µM compound; one set of sites
# [3] = test system: VEGFA (DNA, G4) GGGGGCGGGCCGGGGGCGGGGTCCCGGCGGGGCGGAG; experiment: ITC; conditions: 100 mM KCl, K+ phosphate; 10 mM potassium phosphate pH 7.0, 25 °C; 100 µM DNA injected into 10 µM compound; one set of sites
# [4] = test system: KRAS (DNA, G4) GGGAGGGAGGGAAGGAGGGAGGGAGGGA; experiment: UV absorption titration (316 nm); conditions: 100 mM KCl, K+ phosphate; 10 mM potassium phosphate pH 7.0; 10 µM compound titrated with 0–20 µM DNA; one-site fit
# [5] = test system: BCL2 (DNA, G4) CGGGCGCGGGAGGAATTGGGCGGGAGC; experiment: ITC; conditions: 100 mM KCl, K+ phosphate; 10 mM potassium phosphate pH 7.0, 25 °C; 100 µM DNA injected into 10 µM compound; one set of sites
# [6] = test system: GC rich duplex DNA (DNA, duplex) AGGGTGGGGAGGGT/ACCCTCCCCACCCT; experiment: UV absorption titration; conditions: 100 mM KCl, K+ phosphate; 10 mM potassium phosphate pH 7.0; 10 µM compound, 0–20 µM duplex; quadruplex affinity 4–16 fold higher
# [7] = test system: VEGFA (DNA, G4) GGGGGCGGGCCGGGGGCGGGGTCCCGGCGGGGCGGAG; experiment: ethidium bromide displacement, fluorescence; conditions: 100 mM KCl, K+ phosphate; 10 mM potassium phosphate pH 7.0; 5 µM ethidium bromide displaced, 10 µM DNA
# [8] = test system: BCL2 (DNA, G4) CGGGCGCGGGAGGAATTGGGCGGGAGC; experiment: fluorescence anisotropy of compound; conditions: 100 mM KCl, K+ phosphate; 10 mM potassium phosphate pH 7.0; 10 µM compound titrated with DNA
# [9] = test system: GC rich duplex DNA (DNA, duplex) AGGGTGGGGAGGGT/ACCCTCCCCACCCT; experiment: fluorescence anisotropy of compound; conditions: 100 mM KCl, K+ phosphate; 10 mM potassium phosphate pH 7.0; 10 µM compound, 0–20 µM duplex
# [10] = test system: VEGFA (DNA, G4) GGGGGCGGGCCGGGGGCGGGGTCCCGGCGGGGCGGAG; experiment: CD melting; conditions: 100 mM KCl, K+ phosphate; 10 mM potassium phosphate pH 7.0; 1:2 DNA:compound (10 µM DNA in CD titration); Tm free 67.3
# [11] = test system: KRAS (DNA, G4) GGGAGGGAGGGAAGGAGGGAGGGAGGGA; experiment: ethidium bromide displacement, fluorescence; conditions: 100 mM KCl, K+ phosphate; 10 mM potassium phosphate pH 7.0; 5 µM ethidium bromide displaced, 10 µM DNA
# [12] = test system: KRAS (DNA, G4) GGGAGGGAGGGAAGGAGGGAGGGAGGGA; experiment: CD melting; conditions: 100 mM KCl, K+ phosphate; 10 mM potassium phosphate pH 7.0; 1:2 DNA:compound (10 µM DNA in CD titration); Tm free 67.5
# [13] = test system: VEGFA (DNA, G4) GGGGGCGGGCCGGGGGCGGGGTCCCGGCGGGGCGGAG; experiment: fluorescence anisotropy of compound; conditions: 100 mM KCl, K+ phosphate; 10 mM potassium phosphate pH 7.0; 10 µM compound titrated with DNA
# [14] = test system: BCL2 (DNA, G4) CGGGCGCGGGAGGAATTGGGCGGGAGC; experiment: UV absorption titration (316 nm); conditions: 100 mM KCl, K+ phosphate; 10 mM potassium phosphate pH 7.0; 10 µM compound titrated with 0–20 µM DNA; one-site fit
# [15] = test system: GC rich duplex DNA (DNA, duplex) AGGGTGGGGAGGGT/ACCCTCCCCACCCT; experiment: ITC; conditions: 100 mM KCl, K+ phosphate; 10 mM potassium phosphate pH 7.0, 25 °C; 100 µM duplex injected into 10 µM compound
# [16] = test system: BCL2 (DNA, G4) CGGGCGCGGGAGGAATTGGGCGGGAGC; experiment: CD melting; conditions: 100 mM KCl, K+ phosphate; 10 mM potassium phosphate pH 7.0; 1:2 DNA:compound (10 µM DNA in CD titration); Tm free 57.1
# [17] = test system: VEGFA (DNA, G4) GGGGGCGGGCCGGGGGCGGGGTCCCGGCGGGGCGGAG; experiment: UV absorption titration (316 nm); conditions: 100 mM KCl, K+ phosphate; 10 mM potassium phosphate pH 7.0; 10 µM compound titrated with 0–20 µM DNA; one-site fit
# [18] = test system: BCL2 (DNA, G4) CGGGCGCGGGAGGAATTGGGCGGGAGC; experiment: ethidium bromide displacement, fluorescence; conditions: 100 mM KCl, K+ phosphate; 10 mM potassium phosphate pH 7.0; 5 µM ethidium bromide displaced, 10 µM DNA
compound,measurement,setting,value
COc1ccc2c(c[n+](C)c3c4cc5c(cc4ccc23)OCO5)c1OC,KD,[1],1500 nM
same,KD,[2],870 nM
same,KD,[3],980 nM
same,KD,[4],720 ± 200 nM
same,KD,[5],600 nM
same,KD,[6],8330 ± 400 nM
same,binding,[7],yes
same,KD,[8],3200 nM
same,KD,[9],6140 ± 2000 nM
same,∆Tm,[10],3.3 °C
same,binding,[11],yes
same,∆Tm,[12],4.6 °C
same,KD,[13],250 nM
same,KD,[14],1920 ± 700 nM
same,KD,[15],4330 nM
same,∆Tm,[16],16.2 °C
same,KD,[17],510 ± 300 nM
same,binding,[18],yes
